Assay results published in US20110038948A1, “Methods of Reducing the Production of Reactive Oxygen Species and Methods of Screening or Identifying Compounds and Compositions that Reduce the Production of Reactive Oxygen Species” (UNIVERSITY OF TENNESSEE RESEARCH FOUNDATION, priority 2005, published 2011).

Key:
3T3-L1 adipocytes = assay: Intracellular Ca2+ in cultured adipocytes (fura-2); format: cell-based, mouse; details: H2O2 100 nmol/L, 4 hours; p<0.001
Procedure: 3T3-L1 preadipocytes were incubated at a density of 8000 cells/cm^2 (10 cm^2 dish) and grown in Dulbecco's modified Eagle's medium (DMEM) containing 10% FBS and antibiotics (adipocyte medium) at 37° C. in 5% CO2 in air. Confluent preadipocytes were induced to differentiate with a standard differentiation medium consisting of DMEM-F10 (1:1, vol/vol) medium supplemented with 1% FBS, 1 μM dexamethasone, IBMX (0.5 mM) and antibiotics (1% Penicillin-Streptomycin). Preadipocytes were maintained in this differentiation medium for 3 days and subsequently cultured in adipocyte medium. Cultures were re-fed every 2-3 days to allow 90% of cells to reach full differentiation before conducting chemical treatment. Chemicals were freshly diluted in adipocyte medium before treatment. Cells were washed with fresh adipocyte medium, re-fed with medium containing the different treatments, and incubated at 37° C. in 5% CO2 in air before analysis. Cell viability was measured via trypan blue exclusion. [Ca^2+]i in adipocytes was measured using a fura-2 dual-wavelength fluorescence imaging system. Cells were plated in 35-mm dishes […]). […] Cells were loaded with fura-2 acetoxymethyl ester (fura-2 AM) (10 μmol/L) in the same buffer for 2 h at 37° C. in a dark incubator with 5% CO2. To remove extracellular dye, cells were rinsed with HBSS three times and then post-incubated at room temperature for an additional 1 h for complete hydrolysis of cytoplasmic fura-2 AM. The dishes with dye-loaded cells were mounted on the stage of Nikon TMS-F fluorescence inverted microscope with a Cohu model 4915 charge-coupled device (CCD) camera. Fluorescent images were captured alternatively at excitation wavelengths of 340 and 380 nm with an emission wavelength of 520 nm. After establishment of a stable baseline, the responses to 1α, 25-(OH)2-D3 was determined. [Ca^2+]i was calculated using a ratio equation as described previously. Each analysis evaluated responses of 5 representative whole cells. Images were analyzed with […]2 version 4.62 imaging software (Intracellular Imaging, Cincinnati, Ohio). […]

TNFα = TNFα expression in RAW 264 macrophages; format: cell-based
Procedure: (§1) RAW 264 macrophages and 3T3-L1 preadipocytes (American Type Culture Collection) were incubated at a density of 8000 cells/cm2 (10 cm2 dish) and grown in Dulbecco's modified Eagle's medium (DMEM) containing 10% FBS and antibiotics (adipocyte medium) at 37° C. in 5% CO2 in air. Confluent 3T3-L1 preadipocytes were induced to differentiate with a standard differentiation medium consisting of DMEM-F10 (1:1, vol/vol) medium supplemented with 1% FBS, 1 μM dexamethasone, IBMX (0.5 mM) and antibiotics (1% Penicillin-Streptomycin). Preadipocytes were maintained in this differentiation medium for 3 days and subsequently cultured in adipocyte medium. Cultures were re-fed every 2-3 days to allow 90% cells to reach fully differentiation for 3T3-L1 adipocytes or grow to a confluence for RAW 264 before conducting chemical treatment.
(§2) Cells were washed with fresh adipocyte medium, re-fed with medium containing the indicated treatments, and incubated at 37° C. in 5% CO2 for 48 hours before analysis. Cell viability was measured via trypan blue exclusion.
(§3) Human adipocytes (Zen-Bio, Inc.), 3T3-L1 adipocytes, RAW264 macrophages were obtained and co-cultured by using transwell inserts with 0.4 μm porous membranes (Corning) to separate adipocytes and macrophages. All data are expressed as mean±SEM. Data were evaluated for statistical significance by analysis of one-way or two-way variance (ANOVA; means with different letter differ, p<0.05).
(§4) Adipocyte and muscle 18s, CD14, TNFα, MIP, M-CSF, IL-6 and MCP-1 were quantitatively measured using a Smart Cycler Real Time PCR System (Cepheid, Sunnyvale, Calif.) with a TaqMan 1000 Core Reagent Kit (Applied Biosystems, Branchburg, N.J.). […] Reactions of quantitative RT-PCR for standards and unknown samples were also performed according to the instructions of Smart Cycler System (Cepheid, Sunnyvale, Calif.) and TaqMan Real Time PCR Core Kit (Applied Biosystems, Branchburg, N.J.). The mRNA quantitation for each sample was further normalized using the corresponding 18s quantitation.

[1] = tested on: macrophage inhibitory factor (MIF); assay: MIF expression in human adipocytes; format: cell-based; details: calcitriol 10 nmol/L, 48 hours; p=0.001
From the text: Cell culture: Human preadipocytes used in this study were supplied by Zen-Bio (Research Triangle, N.C.). Preadipocytes were inoculated in DMEM/Ham's F-10 medium (DMEM-F10) (1:1, vol/vol) containing 10% FBS, 15 mmol/L HEPES, and antibiotics at a density of 30,000 cells/cm2. Confluent monolayers of preadipocytes were induced to differentiate with a standard differentiation medium consisting of DMEM-F10 (1:1, vol/vol) medium supplemented with 15 mmol/L HEPES, 3% FBS, 33 μmol/L biotin, 17 μmol/L pantothenate, 100 nmol/L insulin, […] methylisobutylxanthine, 1 μmol/L dexamethasone, 1 μmol/L BRL49653, and antibiotics. […]
as §2
as §4, with “The mRNA quantitation for each sample was further normalized using the corresponding 18s quantitation.” left out

IL-6 = IL-6 expression in RAW 264 macrophages; format: cell-based; details: co-culture with differentiated 3T3-L1 adipocytes
Procedure: as §1, with “Cultures were re-fed every 2-3 days to allow 90% cells to reach fully differentiation for 3T3-L1 adipocytes or grow to a confluence for RAW 264 before conducting chemical treatment.” left out
as §2
as §3, with “p<0.05). […]” for “p<0.05).”

fatty acid synthase = assay: Fatty acid synthase gene expression in adipocytes; format: cell-based, murine; details: p<0.05
From the text: The adipose tissue-skeletal muscle endocrine axis may play a potential role in regulating metabolic energy partitioning. […] However, the effect of leucine and calcium, in regulating this process is unclear. Accordingly, present study was designed to investigate the effect of leucine, calcitriol and calcium on energy metabolism in murine adipocytes and muscle cells.

| SMILES | increase in [Ca2+]i (3T3-L1 adipocytes) | stimulation of TNFα expression (TNFα; RAW 264 macrophages cultured alone) | effect on TNFα expression in macrophages (TNFα; co-culture with differentiated 3T3-L1 adipocytes) | increase in MIF expression [1] | effect on IL-6 expression in macrophages (IL-6) | increase in adipocyte FAS gene expression (fatty acid synthase) |
| --- | --- | --- | --- | --- | --- | --- |
| OO [H2O2, hydrogen peroxide] | 5 fold | – | – | – | – | – |
| C=C1/C(=C\C=C2/CCC[C@]3(C)[C@@H]([C@H](C)CCCC(C)(C)O)CC[C@@H]23)C[C@@H](O)C[C@@H]1O [calcitriol, 1,25-(OH)2-D3] | – | 91% | further enhanced | 59% | further enhanced | 3 fold |
